One assay concerns the target human STING (Homo sapiens, UniProt Q86WV6). In words: Fluorescence Thermal Shift assay (binding to STING). To be noted: STING 0.1 mg/mL, SyproOrange, 25 to 99° C. The method in brief: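 Human STING (0.1 mg/mL final) preincubated 20 min with compounds in 50 mM Hepes, 150 mM NaCl, pH 7.5, then SyproOrange added. Thermal unfolding 25–99 °C at 0.033 °C/s continuous ramp monitored by fluorescence.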

Assay [1] deals with CT26 murine colon carcinoma allografts. In words: In vivo anti-tumor efficacy in CT26 allografts. More on the design: species or system female Balb/C mice. To be noted: intravenously, once every fifth day on three occasions. The protocol:
The efficacy of Example 4, Example 31 and Example 57 was evaluated in established CT26 murine colon carcinoma allografts in female Balb/C mice. Compounds were formulated in 5% ethanol with 10% Captisol in PBS and administered intravenously, once every fifth day on three occasions. The solution was prepared fresh prior to each administration. […] By the end of the study there was one complete response among animals treated at 10 mg/kg of Example 4. […] By the end of the study, on day 43, there was one complete response recorded in group treated at 20 mg/kg of Example 57.

The test system of assay [2] is interferon regulatory factor (IRF) pathway in THP-1 dual cells. Description: THP-1 Dual reporter assay, IRF pathway (luciferase). Format: cell-based. As to conditions: Homo sapiens, THP1-Dual; 18 h stimulation, luminescence; read-out: THP1 Dual EC50 (μM) IRF. The essentials:
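Dual-reporter THP-1 cells treated 18 h with STING agonist; secreted luciferase (IRF) and SEAP (NF-κB) quantified from medium by luminescence and colorimetric absorbance, respectively.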

Assay [3] has as its system NF-κB pathway in THP-1 dual cells. Description: THP-1 Dual reporter assay, NF-κB pathway (SEAP). The class given is cell-based. To be noted: Homo sapiens, THP1-Dual; 18 h stimulation, absorbance at 630 or 655 nm; read-out: THP1 Dual EC50 (μM) NFkB. The method in brief:
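Readouts come from THP-1 dual cell supernatant taken 18 h after STING agonist addition. SEAP activity is developed in detection medium for 1–2 h at 37° C and read at 630/655 nm; luciferase is read by luminescence immediately after reagent addition.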
(In general: A reporter such as luciferase makes a cellular process visible.)

As a reminder, the EC50 is the midpoint of the concentration-response curve.

human STING, sequence (Q86WV6 whole entry H232R): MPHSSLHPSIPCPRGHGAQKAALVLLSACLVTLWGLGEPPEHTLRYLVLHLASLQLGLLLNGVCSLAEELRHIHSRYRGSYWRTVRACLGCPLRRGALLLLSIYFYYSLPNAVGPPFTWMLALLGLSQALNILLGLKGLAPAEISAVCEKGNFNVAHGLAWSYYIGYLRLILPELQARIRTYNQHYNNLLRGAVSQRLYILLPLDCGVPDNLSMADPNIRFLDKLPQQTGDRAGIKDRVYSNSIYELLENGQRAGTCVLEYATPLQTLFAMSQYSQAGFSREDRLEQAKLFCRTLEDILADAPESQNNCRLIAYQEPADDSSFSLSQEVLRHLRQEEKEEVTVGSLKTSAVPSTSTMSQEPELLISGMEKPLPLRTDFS

Turning to `Cc1ccc(N2CCC[C@H](N(Cc3ccnc(C)c3)Cc3cn(C4CC4)c4cc(N5CC[C@H](N)C(F)(F)C5)c(F)cc4c3=O)C2)cn1.Cl` (single isomer, unassigned) [Example 57], on human STING, the “hSTING FTS binding assay (ΔT C. °)” value is listed as “+++ (+++=ΔTm ≥20° C.)”. For the same compound, the “anti-tumor efficacy (tumor growth vs control group)” value in assay [1] (5 mg/kg) is “minimal tumor growth delay”; in assay [1] (10 mg/kg), “moderately efficacious”; in assay [1] (20 mg/kg), “full efficacious”. In addition, the “complete responses by the end of the study” value (“complete responses by the end” below) in assay [1] (20 mg/kg, day 43) is given as “one”. The “response of CT26 tumors to treatment” value in assay [1] was “responded prominently”.
As to `COc1cc(CN(Cc2cn(C3CC3)c3cc(F)c(F)cc3c2=O)[C@H]2CCCN(c3ccc(N)nc3)C2)ccn1.Cl` [Example 4, 3-({[(3S)-1-(6-Aminopyridin-3-yl)piperidin-3-yl][(2-methoxypyridin-4-yl)methyl]amino}methyl)-1-cyclopropyl-6,7-difluoro-1,4-dihydroquinolin-4-one hydrochloride], the EC50 in assay [2] and in assay [3] was less than 1 µM throughout. The “hSTING FTS binding assay (ΔT C. °)” value on human STING is reported as “+++ (+++=ΔTm ≥20° C.)”. Besides, the “anti-tumor efficacy (tumor growth vs control group)” value in assay [1] (7 mg/kg) and in assay [1] (10 mg/kg) was “efficacious” in each case. In assay [1] (10 mg/kg), the “complete responses by the end” value is given as “one”. In addition, the “response of CT26 tumors to treatment” value in assay [1] was “responded prominently”.
On to `Cc1ccc(N2CCC[C@H](N(Cc3ccnc(C)c3)Cc3cn(C4CC4)c4cc(N5CCC[C@H](O)C5)c(F)cc4c3=O)C2)cn1.Cl` [Example 31, 1-cyclopropyl-6-fluoro-7-[(3S)-3-hydroxypiperidin-1-yl]-3-({[(3S)-1-(6-methylpyridin-3-yl)piperidin-3-yl][(2-methylpyridin-4-yl)methyl]amino}methyl)-1,4-dihydroquinolin-4-one hydrochloride], for which the EC50 in assay [2] and in assay [3] was less than 1 µM in each case. Besides, the “hSTING FTS binding assay (ΔT C. °)” value at human STING is given as “+++ (+++=ΔTm ≥20° C.)”. The “anti-tumor efficacy (tumor growth vs control group)” value in assay [1] (7 mg/kg) is recorded as “slight tumor growth delay”; in assay [1] (15 mg/kg), “prominently efficacious”; in assay [1] (30 mg/kg), “prominently efficacious”. Further, the “complete responses by the end” value in assay [1] (30 mg/kg, day 43) was “two”. Also, in assay [1], the “response of CT26 tumors to treatment” value is listed as “responded prominently”.
For `Cc1ccc(N2C[C@@H](F)C[C@H](N(Cc3ccnc(C)c3)Cc3cn(C4CC4)c4cc(OCCO)c(F)cc4c3=O)C2)cn1` [Example 75, 1-cyclopropyl-6-fluoro-3-({[(3S,5S)-5-fluoro-1-(6-methylpyridin-3-yl)piperidin-3-yl][(2-methylpyridin-4-yl)methyl]amino}methyl)-7-(2-hydroxyethoxy)-1,4-dihydroquinolin-4-one], the EC50 in assay [2] and in assay [3] was less than 1 µM each time. Besides, the “hSTING FTS binding assay (ΔT C. °)” value at human STING is listed as “+++ (+++=ΔTm ≥20° C.)”.
Turning to `Cc1cc(CN(Cc2cn(C3CC3)c3cc(N4CC[C@@H](O)C4)c(F)cc3c2=O)[C@H]2CCCN(c3cccnc3)C2)ccn1` [Example 78, 1-Cyclopropyl-6-fluoro-7-[(3R)-3-hydroxypyrrolidin-1-yl]-3-({[(2-methylpyridin-4-yl)methyl][(3S)-1-(pyridin-3-yl)piperidin-3-yl]amino}methyl)-1,4-dihydroquinolin-4-one], the concentration giving a half-maximal response (EC50) in assay [2] and in assay [3] was less than 1 µM each time. The “hSTING FTS binding assay (ΔT C. °)” value on human STING is on record as “+++ (+++=ΔTm ≥20° C.)”.
Take `Cc1cnc(N2C[C@@H](F)C[C@H](N(Cc3ccnc(C)c3)Cc3cn(C4CC4)c4cc(N5CCC[C@H](O)C5)c(F)cc4c3=O)C2)cn1` [Example 82, 1-cyclopropyl-6-fluoro-3-({[(3S,5S)-5-fluoro-1-(5-methylpyrazin-2-yl)piperidin-3-yl][(2-methylpyridin-4-yl)methyl]amino}methyl)-7-[(3S)-3-hydroxypiperidin-1-yl]-1,4-dihydroquinolin-4-one]: the EC50 in assay [2] and in assay [3] was less than 1 µM in each case. Also, at human STING, the “hSTING FTS binding assay (ΔT C. °)” value is “++ (++=10<ΔTm <20° C.)”.
On to `Cc1cc(CN(Cc2cn(C3CC3)c3cc(N4CCC[C@H](O)C4)c(F)cc3c2=O)[C@H]2CCCN(c3cccnc3)C2)ccn1.Cl` [Example 86, 1-cyclopropyl-6-fluoro-7-[(3S)-3-hydroxypiperidin-1-yl]-3-({[(2-methylpyridin-4-yl)methyl][(3S)-1-(pyridin-3-yl)piperidin-3-yl]amino}methyl)-1,4-dihydroquinolin-4-one hydrochloride], for which the EC50 in assay [2] and in assay [3] was less than 1 µM each time. Further, the “hSTING FTS binding assay (ΔT C. °)” value on human STING was “+++ (+++=ΔTm ≥20° C.)”.
